Assay [1] deals with T1, Beta-secretase 1 (Homo sapiens, UniProt P56817). The assay can be described thus: Inhibition of BACE1 at 100 uM by FRET assay.
The target of assay [2] is T1, Beta-secretase 1. Kind of assay: Inhibition of BACE1 at 50 uM by FRET assay.
Assay [3] addresses T1, Beta-secretase 1. Kind of assay: Inhibition of BACE1 at 25 uM by FRET assay.

T1 sequence (P56817 whole entry): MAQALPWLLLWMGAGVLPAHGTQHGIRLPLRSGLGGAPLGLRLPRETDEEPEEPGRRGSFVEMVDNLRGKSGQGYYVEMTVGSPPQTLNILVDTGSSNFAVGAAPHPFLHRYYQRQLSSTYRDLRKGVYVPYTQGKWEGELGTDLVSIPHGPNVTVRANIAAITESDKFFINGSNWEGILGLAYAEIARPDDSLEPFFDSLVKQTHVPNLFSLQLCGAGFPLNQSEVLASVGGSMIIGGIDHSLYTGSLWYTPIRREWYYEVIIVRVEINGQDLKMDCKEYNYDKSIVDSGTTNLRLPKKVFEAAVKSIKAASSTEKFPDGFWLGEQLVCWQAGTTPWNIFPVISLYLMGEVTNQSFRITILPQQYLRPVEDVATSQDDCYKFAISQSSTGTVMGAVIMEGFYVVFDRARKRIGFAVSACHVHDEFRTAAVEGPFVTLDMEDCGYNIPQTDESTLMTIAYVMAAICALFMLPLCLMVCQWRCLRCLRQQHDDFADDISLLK

Regarding `OC(COc1ccc(Cc2ccccc2)cc1)CSc1nnnn1-c1ccccc1` (stereo unspecified), the inhibition (usually the relative decrease from the control value, in per cent) in assay [1] is 62%.

The molecule `COc1cc2c(cc1OC)C(c1ccccc1)N(CC(O)CSc1ccc(Cl)cc1)CC2` (stereo unspecified) had an inhibition in assay [1] of 3%.

In turn, `Cc1c(C)n(CC(O)CSc2ccccc2O)c2ccccc12` (stereo unspecified) returned an inhibition in assay [1] of 61%.

Regarding `OC(CSc1ccc2ccccc2c1)CN1CCCCCC1` (stereo unspecified), the inhibition in assay [1] is 0%.

As to `Cc1c(C)n(CC(O)CSc2nnnn2-c2ccccc2)c2ccccc12` (stereo unspecified), the inhibition amounted to 64% in assay [2], 31% in assay [3] and 93% in assay [1].

`CCc1cccc2ccn(CC(O)CSCCCc3ccccc3)c12` (stereo unspecified) showed an inhibition in assay [1] of 0%.

Consider `COc1ccc(SCC(O)Cn2ccc3ccccc32)c(OC)c1` (stereo unspecified), for which the inhibition stood at 76% in assay [2], 43% in assay [3] and 84% in assay [1].

`COc1ccc(SCC(O)Cn2c(-c3ccccc3)cc3ccccc32)c(OC)c1` (stereo unspecified): the figures for the inhibition in assay [2], in assay [3] and in assay [1] were 42%, 21% and 77%, respectively.

`OC(CSc1nnnn1-c1ccccc1)Cn1c2ccccc2c2ccccc21` (stereo unspecified) returned an inhibition in assay [1] of 64%.

Regarding `CCc1ccc(SCC(O)Cn2c(-c3ccccc3)cc3ccccc32)cc1` (stereo unspecified), the inhibition in assay [2] amounted to 78%; in assay [3], 42%; in assay [1] it was 79%.

Regarding `OC(CSc1ccc2ccccc2c1)CN(Cc1ccccc1)Cc1ccccc1` (stereo unspecified), in assay [1], the inhibition amounted to 19%.

In the case of `COc1cc2c(cc1OC)C(c1ccccc1)N(CC(O)CSc1cc(C)cc(C)c1)CC2` (stereo unspecified), in assay [1], the inhibition was determined as 15%.

For the molecule `CCc1cccc2ccn(CC(O)CSc3ccccc3O)c12` (stereo unspecified), the inhibition in assay [1] stood at 32%.

Regarding `OC(CSc1ccccc1)Cn1c2ccccc2c2ccccc21` (stereo unspecified), the results for the inhibition in assay [2], in assay [3] and in assay [1] were 85%, 79% and 86%, respectively.

In assay [1], `OC(CSc1ccc(Cl)cc1)CN(Cc1ccccc1)Cc1ccccc1` (stereo unspecified) returned an inhibition of 24%.

As for `CCc1ccc(SCC(O)Cn2ccc3ccccc32)cc1` (stereo unspecified), the inhibition in assay [1] is 72%.

As for `OC(CSc1ccc(F)cc1)Cn1c2c(c3ccccc31)CCCC2` (stereo unspecified), the inhibition worked out at 92% in assay [2], 56% in assay [3] and 87% in assay [1].

`CCc1ccccc1SCC(O)CN1CCC(C(O)(c2ccccc2)c2ccccc2)CC1` (stereo unspecified) showed an inhibition in assay [1] of 3%.

Take `Oc1ccccc1SCC(O)COc1ccc(-c2ccccc2)cc1` (stereo unspecified): the inhibition in assay [1] came to 33%.

With `CCc1cccc2ccn(CC(O)CSc3ccc(OC)cc3OC)c12` (stereo unspecified), the inhibition in assay [1] was found to be 69%.

Consider `OC(CSc1ccc2ccccc2c1)CN1CCC(C(O)(c2ccccc2)c2ccccc2)CC1` (stereo unspecified), for which the inhibition in assay [1] is 0%.

In turn, `CCc1ccccc1SCC(O)CN(Cc1ccccc1)Cc1ccccc1` (stereo unspecified) displayed an inhibition in assay [1] of 54%.

On to `OC(CSc1ccc2ccccc2c1)Cn1c2c(c3ccccc31)CCC2` (stereo unspecified), for which the inhibition in assay [2] was found to be 80%; in assay [3], 43%; in assay [1], 87%.

`Cc1cc(C)cc(SCC(O)CN2CCCCCC2)c1` (stereo unspecified) returned an inhibition in assay [1] of 15%.

Take `CCc1ccc(SCC(O)CN2CCC(C(O)(c3ccccc3)c3ccccc3)CC2)cc1` (stereo unspecified): the inhibition in assay [1] was determined as 1%.

Take `CCc1cccc2ccn(CC(O)CSc3cc(C)cc(C)c3)c12` (stereo unspecified): the inhibition in assay [2] worked out at 71%; in assay [3] it was 40%; in assay [1], 90%.

The molecule `COc1ccc(SCC(O)COc2ccc(Cc3ccccc3)cc2)cc1` (stereo unspecified) came in with an inhibition in assay [1] of 48%.

With `COc1ccc(SCC(O)Cn2c(C)c(C)c3ccccc32)cc1` (stereo unspecified), the inhibition in assay [2] is 70%; in assay [3], 26%; in assay [1] it was 96%.

`Oc1ccccc1SCC(O)Cn1ccc2ccccc21` (stereo unspecified) returned an inhibition in assay [1] of 24%.

In assay [1], `COc1ccc(SCC(O)COc2ccc(-c3ccccc3)cc2)c(OC)c1` (stereo unspecified) gave an inhibition of 74%.

Molecule `COc1ccc(SCC(O)COc2ccc(-c3ccccc3)cc2)cc1` (stereo unspecified) showed an inhibition in assay [1] of 45%.

In turn, `OC(CSCCCc1ccccc1)CN(Cc1ccccc1)Cc1ccccc1` (stereo unspecified) had an inhibition in assay [1] of 16%.

Turning to `COc1ccc(SCC(O)CN2CCC(C(O)(c3ccccc3)c3ccccc3)CC2)cc1` (stereo unspecified), the inhibition in assay [1] worked out at 0%.

In assay [1], `OC(CSc1ccccc1)CN(Cc1ccccc1)Cc1ccccc1` (stereo unspecified) yielded an inhibition of 0%.

In assay [1], `Oc1ccc(SCC(O)COc2ccc(-c3ccccc3)cc2)cc1` (stereo unspecified) had an inhibition of 17%.

Molecule `Oc1ccccc1SCC(O)CN1CCC(C(O)(c2ccccc2)c2ccccc2)CC1` (stereo unspecified) came in with an inhibition in assay [1] of 3%.

`Cc1cc(C)cc(SCC(O)CN(Cc2ccccc2)Cc2ccccc2)c1` (stereo unspecified) showed an inhibition in assay [1] of 38%.

`OC(COc1ccc(Cc2ccccc2)cc1)CSc1ccc(Cl)cc1` (stereo unspecified) had an inhibition in assay [1] of 63%.

In the case of `OC(COc1ccc(Cc2ccccc2)cc1)CSc1ccccc1F` (stereo unspecified), the inhibition in assay [1] is 64%.

As for `Oc1ccccc1SCC(O)CN(Cc1ccccc1)Cc1ccccc1` (stereo unspecified), in assay [1], the inhibition stood at 2%.

Molecule `COc1ccc(SCC(O)COc2ccc(Cc3ccccc3)cc2)c(OC)c1` (stereo unspecified) registered an inhibition in assay [1] of 67%.

As to `OC(CSc1ccc(F)cc1)CN(Cc1ccccc1)Cc1ccccc1` (stereo unspecified), the inhibition in assay [1] amounted to 2%.

The molecule `COc1ccc(SCC(O)Cn2c3c(c4ccccc42)CCCC3)c(OC)c1` (stereo unspecified) displayed an inhibition in assay [1] of 74%.

`COc1ccc(SCC(O)Cn2c3c(c4ccccc42)CCC3)c(OC)c1` (stereo unspecified): the inhibition in assay [1] was 75%.

Take `COc1ccc(SCC(O)CN2CCc3cc(OC)c(OC)cc3C2c2ccccc2)cc1` (stereo unspecified): in assay [1], the inhibition stood at 20%.

As to `CCc1cccc2ccn(CC(O)CSc3nnnn3-c3ccccc3)c12` (stereo unspecified), the inhibition was determined as 46% in assay [2] and 86% in assay [1].

Molecule `Cc1ccccc1SCC(O)CN1CCC(C(O)(c2ccccc2)c2ccccc2)CC1` (stereo unspecified) came in with an inhibition in assay [1] of 5%.

For `COc1cc2c(cc1OC)C(c1ccccc1)N(CC(O)CSc1ccc(F)cc1)CC2` (stereo unspecified), the inhibition in assay [1] worked out at 15%.

As to `Cc1ccc(SCC(O)CN2CCC(C(O)(c3ccccc3)c3ccccc3)CC2)cc1` (stereo unspecified), the inhibition in assay [1] is 1%.

As for `OC(CSc1nnnn1-c1ccccc1)Cn1ccc2ccccc21` (stereo unspecified), the inhibition in assay [1] came to 58%.

In turn, `COc1ccc(SCC(O)CN(Cc2ccccc2)Cc2ccccc2)cc1` (stereo unspecified) gave an inhibition in assay [1] of 10%.

Consider `COc1ccc(SCC(O)Cn2c(-c3ccccc3)cc3ccccc32)cc1` (stereo unspecified), for which, in assay [1], the inhibition turned out to be 70%.

`OC(CSc1ccccc1Cl)CN1CCC(C(O)(c2ccccc2)c2ccccc2)CC1` (stereo unspecified) showed an inhibition in assay [1] of 5%.

As to `OC(CSc1nnnn1-c1ccccc1)CN1CCC(C(O)(c2ccccc2)c2ccccc2)CC1` (stereo unspecified), the inhibition in assay [1] amounted to 1%.

In assay [1], `OC(COc1ccc(-c2ccccc2)cc1)CSc1nnnn1-c1ccccc1` (stereo unspecified) displayed an inhibition of 71%.

For `COc1ccc(SCC(O)CN2CCC(C(O)(c3ccccc3)c3ccccc3)CC2)c(OC)c1` (stereo unspecified), the inhibition in assay [1] was found to be 0%.

Turning to `OC(CSc1ccc(F)cc1)CN1CCCCCC1` (stereo unspecified), in assay [1], the inhibition was 10%.

In the case of `Nc1cccc(SCC(O)Cn2c(-c3ccccc3)cc3ccccc32)c1` (stereo unspecified), the inhibition in assay [1] was found to be 73%.

In the case of `CCc1ccc(SCC(O)COc2ccc(Cc3ccccc3)cc2)cc1` (stereo unspecified), the inhibition in assay [1] is 69%.

For `OC(CSc1nnnn1-c1ccccc1)CN(Cc1ccccc1)Cc1ccccc1` (stereo unspecified), in assay [1], the inhibition came to 0%.

`Cc1c(C)n(CC(O)CSc2ccccc2F)c2ccccc12` (stereo unspecified) returned an inhibition in assay [1] of 56%.

In the case of `Cc1c(C)n(CC(O)CSc2ccc3ccccc3c2)c2ccccc12` (stereo unspecified), the inhibition in assay [1] was 87%.

The molecule `OC(CSc1nnnn1-c1ccccc1)Cn1c(-c2ccccc2)cc2ccccc21` (stereo unspecified) had an inhibition in assay [1] of 53%.

In assay [1], `OC(CSc1ccccc1)CN1CCCCCC1` (stereo unspecified) displayed an inhibition of 2%.

In assay [1], `OC(CSc1ccc(Cl)cc1)CN1CCC(C(O)(c2ccccc2)c2ccccc2)CC1` (stereo unspecified) yielded an inhibition of 10%.

The molecule `COc1ccc(SCC(O)CN(Cc2ccccc2)Cc2ccccc2)c(OC)c1` (stereo unspecified) showed an inhibition in assay [1] of 34%.

Turning to `Cc1ccc(SCC(O)COc2ccc(-c3ccccc3)cc2)cc1` (stereo unspecified), the inhibition in assay [1] is 27%.

For `OC(CSc1ccccc1Cl)CN(Cc1ccccc1)Cc1ccccc1` (stereo unspecified), in assay [1], the inhibition was determined as 45%.

In turn, `OC(CSc1ccc(F)cc1)Cn1ccc2ccccc21` (stereo unspecified) yielded an inhibition in assay [1] of 54%.

On to `COc1ccc(SCC(O)CN2CCc3cc(OC)c(OC)cc3C2c2ccccc2)c(OC)c1` (stereo unspecified), for which the inhibition in assay [1] is 24%.

As to `Cc1ccccc1SCC(O)Cn1c(-c2ccccc2)cc2ccccc21` (stereo unspecified), the inhibition in assay [1] was 67%.

The molecule `Cc1cc(C)cc(SCC(O)CN2CCC(C(O)(c3ccccc3)c3ccccc3)CC2)c1` (stereo unspecified) came in with an inhibition in assay [1] of 0%.

`OC(CSc1nnnn1-c1ccccc1)CN1CCCCCC1` (stereo unspecified): in assay [1], the inhibition worked out at 0%.

For `Cc1c(C)n(CC(O)CSc2cccc(N)c2)c2ccccc12` (stereo unspecified), the inhibition in assay [1] worked out at 55%.

Consider `COc1cc2c(cc1OC)C(c1ccccc1)N(CC(O)CSc1ccccc1C)CC2` (stereo unspecified), for which, in assay [1], the inhibition was found to be 24%.

On to `Oc1ccc(SCC(O)CN2CCC(C(O)(c3ccccc3)c3ccccc3)CC2)cc1` (stereo unspecified), for which, in assay [1], the inhibition is 0%.

`OC(CSc1ccccc1F)CN(Cc1ccccc1)Cc1ccccc1` (stereo unspecified) displayed an inhibition in assay [1] of 1%.

`COc1cc2c(cc1OC)C(c1ccccc1)N(CC(O)CSc1nnnn1-c1ccccc1)CC2` (stereo unspecified): in assay [1], the inhibition stood at 45%.

`CCc1ccc(SCC(O)CN2CCc3cc(OC)c(OC)cc3C2c2ccccc2)cc1` (stereo unspecified) registered an inhibition in assay [1] of 21%.

`Cc1cc(C)cc(SCC(O)COc2ccc(Cc3ccccc3)cc2)c1` (stereo unspecified) had an inhibition in assay [1] of 71%.

In assay [1], `CCc1ccccc1SCC(O)COc1ccc(Cc2ccccc2)cc1` (stereo unspecified) registered an inhibition of 71%.

`OC(CSc1ccccc1F)CN1CCC(C(O)(c2ccccc2)c2ccccc2)CC1` (stereo unspecified) had an inhibition in assay [1] of 8%.

In the case of `OC(CSc1ccccc1)CN1CCC(C(O)(c2ccccc2)c2ccccc2)CC1` (stereo unspecified), the inhibition in assay [1] is 2%.

Molecule `OC(COc1ccc(Cc2ccccc2)cc1)CSc1ccc(F)cc1` (stereo unspecified) gave an inhibition in assay [1] of 62%.

With `Cc1c(C)n(CC(O)CSc2ccccc2)c2ccccc12` (stereo unspecified), the inhibition in assay [1] turned out to be 69%.

`Cc1c(C)n(CC(O)CSc2ccc(O)cc2)c2ccccc12` (stereo unspecified) displayed an inhibition in assay [1] of 75%.

As to `CCc1ccccc1SCC(O)CN1CCc2cc(OC)c(OC)cc2C1c1ccccc1` (stereo unspecified), the inhibition in assay [1] came out at 1%.

In turn, `COc1cc2c(cc1OC)C(c1ccccc1)N(CC(O)CSc1ccccc1F)CC2` (stereo unspecified) came in with an inhibition in assay [1] of 23%.

As for `OC(CSc1ccc(Cl)cc1)CN1CCCCCC1` (stereo unspecified), in assay [1], the inhibition turned out to be 0%.

In turn, `Cc1ccccc1SCC(O)COc1ccc(-c2ccccc2)cc1` (stereo unspecified) had an inhibition in assay [1] of 74%.

In the case of `Cc1ccc(SCC(O)CN(Cc2ccccc2)Cc2ccccc2)cc1` (stereo unspecified), the inhibition in assay [1] was found to be 7%.

In assay [1], `COc1cc2c(cc1OC)C(c1ccccc1)N(CC(O)CSc1ccc(C)cc1)CC2` (stereo unspecified) displayed an inhibition of 11%.

The values are drawn from ChEMBL document CHEMBL2057073, “Synthesis and structure-activity relationship studies of 1,3-disubstituted 2-propanols as BACE-1 inhibitors” (Bioorg Med Chem Lett, 2012).
